Experimental data published in US9951065B2 (Gilead Sciences, Inc., priority 2015, dated 2018).

Biological target: T1, IDO1 (Homo sapiens, UniProt P14902)
T1 construct: HeLa cells were treated with a test compound in the presence of IFNγ, which induces IDO1 expression; host or cells: H1-HeLa cells, IDO1 induced with IFNγ
Test: Cell-based (HeLa) assay for measurement of IDO1 inhibition (kynurenine levels in supernatant after IFNγ induction)
Details: HeLa cells, geometric mean of a minimum of four determinations
Method in brief: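 HeLa cells, 1,250 per well, treated with compound (0.5% DMSO final) plus IFNγ to induce IDO1, for 48 h. Supernatant kynurenine measured by TCA hydrolysis at 60 °C, then p-dimethylaminobenzaldehyde, absorbance 480 nm. EC50 from a four-parameter fit normalized to −/+IFNγ controls; geometric mean of at least four runs.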

[1] = IFNγ-induced IDO1, kynurenine in supernatant, 48 hour incubation
[2] = IFNγ-induced IDO1, kynurenine in supernatant after 48 hour incubation

T1 sequence (P14902 whole entry): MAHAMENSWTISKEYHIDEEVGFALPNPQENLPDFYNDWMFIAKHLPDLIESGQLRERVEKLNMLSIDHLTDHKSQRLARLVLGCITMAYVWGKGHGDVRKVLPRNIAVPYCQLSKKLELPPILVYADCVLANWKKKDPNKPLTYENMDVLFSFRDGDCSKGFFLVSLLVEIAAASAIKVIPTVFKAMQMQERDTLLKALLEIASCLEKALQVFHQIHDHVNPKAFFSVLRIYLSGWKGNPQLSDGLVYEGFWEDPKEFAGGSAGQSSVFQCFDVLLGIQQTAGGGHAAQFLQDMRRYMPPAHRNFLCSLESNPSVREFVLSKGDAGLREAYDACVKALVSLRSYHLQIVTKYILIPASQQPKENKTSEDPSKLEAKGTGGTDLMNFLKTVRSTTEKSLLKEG

EC50 [1] [nM] | EC50 [2] [nM] | SMILES
1990 | – | CN1Cc2ccccc2C(Nc2nc3c(F)c(F)cc(/C(=N/O)Nc4ccc(F)c(Cl)c4)c3[nH]2)C1 (centres unmarked) [Example 475, N-(3-chloro-4-fluorophenyl)-4,5-difluoro-N′-hydroxy-2-((2-methyl-1,2,3,4-tetrahydroisoquinolin-4-yl)amino)-1H-benzo[d]imidazole-7-carboximidamide]
838 | – | CN(C)C1(CNc2nc3c(F)c(F)cc(/C(=N/O)Nc4ccc(F)c(Cl)c4)c3[nH]2)CCCC1 [Example 438, N-(3-chloro-4-fluorophenyl)-2-(((1-(dimethylamino)cyclopentyl)methyl)amino)-4,5-difluoro-N′-hydroxy-1H-benzo[d]imidazole-7-carboximidamide]
– | 3000 | CC(O)CNc1nc2c(F)c(F)cc(/C(=N/O)Nc3ccc(F)c(Cl)c3)c2[nH]1 (centres unmarked) [Example 293, N-(3-chloro-4-fluorophenyl)-4,5-difluoro-N′-hydroxy-2-((2-hydroxypropyl)amino)-1H-benzo[d]imidazole-7-carboximidamide]
– | 2810 | O/N=C(\Nc1ccc(F)c(Cl)c1)c1ccnc2nc(CNCc3ncccn3)[nH]c12 [Example 130, N-(3-Chloro-4-fluorophenyl)-N′-hydroxy-2-(((pyrimidin-2-ylmethyl)amino)methyl)-1H-imidazo[4,5-b]pyridine-7-carboximidamide]
– | > 10000 | CC(=O)NCCc1nc2nccc(/C(=N/O)Nc3ccc(F)c(Cl)c3)c2[nH]1 [Example 270, N-(2-(7-(N-(3-chloro-4-fluorophenyl)-N′-hydroxycarbamimidoyl)-1H-imidazo[4,5-b]pyridin-2-yl)ethyl)acetamide]
– | 2360 | O/N=C(\Nc1ccc(F)c(Cl)c1)c1ccnc2nc(CNCC3CCCCO3)[nH]c12 (centres unmarked) [Example 127, N-(3-Chloro-4-fluorophenyl)-N′-hydroxy-2-((((tetrahydro-2H-pyran-2-yl)methyl)amino)methyl)-1H-imidazo[4,5-b]pyridine-7-carboximidamide]
– | 1880 | COCCCN(C)Cc1nc2nccc(/C(=N/O)Nc3ccc(F)c(Cl)c3)c2[nH]1 [Example 122, N-(3-Chloro-4-fluorophenyl)-N′-hydroxy-2-(((3-methoxypropyl)(methyl)amino)methyl)-1H-imidazo[4,5-b]pyridine-7-carboximidamide]
– | 1340 | O/N=C(\Nc1cccc2ccoc12)c1ccnc2nc[nH]c12 [Example 69, N-(Benzofuran-7-yl)-N′-hydroxy-1H-imidazo[4,5-b]pyridine-7-carboximidamide]
– | 315 | O/N=C(\Nc1ccc(F)c(C(F)(F)F)c1)c1ccnc2nc[nH]c12 [Example 83, N-(4-Fluoro-3-(trifluoromethyl)phenyl)-N′-hydroxy-1H-imidazo[4,5-b]pyridine-7-carboximidamide]
– | 6270 | CN(C)c1nc2nccc(/C(=N/O)Nc3ccc(F)c(Cl)c3)c2[nH]1 [Example 169, N-(3-Chloro-4-fluorophenyl)-2-(dimethylamino)-N′-hydroxy-1H-imidazo[4,5-b]pyridine-7-carboximidamide]
337 | – | CN1CCC[C@H](Nc2nc3c(F)c(F)cc(/C(=N/O)Nc4cccc(Cl)c4)c3[nH]2)C1 [Example 459, (S)—N-(3-chlorophenyl)-4,5-difluoro-N′-hydroxy-2-((1-methylpiperidin-3-yl)amino)-1H-benzo[d]imidazole-7-carboximidamide]
838 | – | CC(CNc1nc2c(F)c(F)cc(/C(=N/O)Nc3ccc(F)c(Cl)c3)c2[nH]1)N1CCOCC1 (centres unmarked) [Example 377, N-(3-chloro-4-fluorophenyl)-4,5-difluoro-N′-hydroxy-2-((2-morpholinopropyl)amino)-1H-benzo[d]imidazole-7-carboximidamide]
– | 3020 | O/N=C(\Nc1ccc(F)c(Cl)c1)c1ccnc2nc(CNCCCN3CCOCC3)[nH]c12 [Example 131, N-(3-Chloro-4-fluorophenyl)-N′-hydroxy-2-(((3-morpholinopropyl)amino)methyl)-1H-imidazo[4,5-b]pyridine-7-carboximidamide]
– | 1410 | O=S(=O)(NCc1nc2nccc(/C(=N/O)Nc3ccc(F)c(Cl)c3)c2[nH]1)c1ccccc1 [Example 180, N-(3-Chloro-4-fluorophenyl)-N′-hydroxy-2-(phenylsulfonamidomethyl)-1H-imidazo[4,5-b]pyridine-7-carboximidamide]
– | 5100 | CC(C)c1cc(N/C(=N\O)c2ccnc3nc[nH]c23)ccc1F [Example 93, N-(4-Fluoro-3-isopropylphenyl)-N′-hydroxy-1H-imidazo[4,5-b]pyridine-7-carboximidamide]
– | 899 | O/N=C(\Nc1ccc(F)c(Cl)c1)c1ccnc2nc(NCCCN3CCOCC3)[nH]c12 [Example 221, N-(3-chloro-4-fluorophenyl)-N′-hydroxy-2-((3-morpholinopropyl)amino)-1H-imidazo[4,5-b]pyridine-7-carboximidamide]

EC50 [1] [nM] | EC50 [2] [nM] | SMILES
– | 5460 | Cn1cnc2c(/C(=N/O)Nc3ccc(F)c(Cl)c3)ccnc21 [Example 197, N-(3-Chloro-4-fluorophenyl)-N′-hydroxy-3-methyl-3H-imidazo[4,5-b]pyridine-7-carboximidamide]
561 | – | O/N=C(\Nc1ccc(F)c(Cl)c1)c1ccnc2nc(NCCNC3CC3)[nH]c12 [Example 402, N-(3-chloro-4-fluorophenyl)-2-((2-(cyclopropylamino)ethyl)amino)-N′-hydroxy-1H-imidazo[4,5-b]pyridine-7-carboximidamide]
685 | – | CC1CCN(C)C(CNc2nc3c(F)c(F)cc(/C(=N/O)Nc4ccc(F)c(Cl)c4)c3[nH]2)C1 (centres unmarked) [Example 466, N-(3-chloro-4-fluorophenyl)-2-(((1,4-dimethylpiperidin-2-yl)methyl)amino)-4,5-difluoro-N′-hydroxy-1H-benzo[d]imidazole-7-carboximidamide]
8490 | – | O/N=C(\Nc1ccc(F)c(Cl)c1)c1cc(F)c(F)c2nc(NCc3ccccn3)[nH]c12 [Example 342, N-(3-chloro-4-fluorophenyl)-4,5-difluoro-N′-hydroxy-2-((pyridin-2-ylmethyl)amino)-1H-benzo[d]imidazole-7-carboximidamide]
1400 | – | CC(CN(C)C)Nc1nc2c(F)c(F)cc(/C(=N/O)Nc3ccc(F)c(Cl)c3)c2[nH]1 (centres unmarked) [Example 378, N-(3-chloro-4-fluorophenyl)-2-((1-(dimethylamino)propan-2-yl)amino)-4,5-difluoro-N′-hydroxy-1H-benzo[d]imidazole-7-carboximidamide]
– | 583 | O/N=C(\Nc1cccc2occc12)c1ccnc2nc[nH]c12 [Example 67, N-(Benzofuran-4-yl)-N′-hydroxy-1H-imidazo[4,5-b]pyridine-7-carboximidamide]
– | 618 | O/N=C(\Nc1ccc(F)c(Cl)c1)c1ccnc2nc(CCN3CC4CCCC(C4)C3)[nH]c12 [Example 276, 2-(2-(3-azabicyclo[3.3.1]nonan-3-yl)ethyl)-N-(3-chloro-4-fluorophenyl)-N′-hydroxy-1H-imidazo[4,5-b]pyridine-7-carboximidamide]
– | 3320 | CC(C)(O)CNc1nc2c(F)c(F)cc(/C(=N/O)Nc3ccc(F)c(Cl)c3)c2[nH]1 [Example 292, N-(3-chloro-4-fluorophenyl)-4,5-difluoro-N′-hydroxy-2-((2-hydroxy-2-methylpropyl)amino)-1H-benzo[d]imidazole-7-carboximidamide]
– | 2820 | O/N=C(\Nc1ccc(F)c(Cl)c1)c1ccnc2nc(CCN3CCOCC3)[nH]c12 [Example 191, N-(3-Chloro-4-fluorophenyl)-N′-hydroxy-2-(2-morpholinoethyl)-1H-imidazo[4,5-b]pyridine-7-carboximidamide]
– | > 10000 | O/N=C(\Nc1ccc(F)c(Cl)c1)c1cc(F)c(F)c2nc(NC3CC(O)C3)[nH]c12 (centres unmarked) [Example 296, N-(3-chloro-4-fluorophenyl)-4,5-difluoro-N′-hydroxy-2-((3-hydroxycyclobutyl)amino)-1H-benzo[d]imidazole-7-carboximidamide]
– | 380 | C#Cc1cc(N/C(=N\O)c2ccnc3nc[nH]c23)ccc1F [Example 97, N-(3-ethynyl-4-fluorophenyl)-N′-hydroxy-1H-imidazo[4,5-b]pyridine-7-carboximidamide]
– | 2580 | O/N=C(\Nc1ccc(F)c(Cl)c1)c1ccnc2nc(CNCC3CCCOC3)[nH]c12 (centres unmarked) [Example 129, N-(3-Chloro-4-fluorophenyl)-N′-hydroxy-2-((((tetrahydro-2H-pyran-3-yl)methyl)amino)methyl)-1H-imidazo[4,5-b]pyridine-7-carboximidamide]
6800 | – | CN(C)[C@H]1CCC[C@H](Nc2nc3c(F)c(F)cc(/C(=N/O)Nc4ccc(F)c(Cl)c4)c3[nH]2)C1 [Example 439, N-(3-chloro-4-fluorophenyl)-2-(((1S,3S)-3-(dimethylamino)cyclohexyl)amino)-4,5-difluoro-N′-hydroxy-1H-benzo[d]imidazole-7-carboximidamide]
7580 | – | N[C@@H]1CCCC[C@@H]1Nc1nc2c(F)c(F)cc(/C(=N/O)Nc3ccc(F)c(Cl)c3)c2[nH]1 [Example 474, 2-(((1S,2R)-2-aminocyclohexyl)amino)-N-(3-chloro-4-fluorophenyl)-4,5-difluoro-N′-hydroxy-1H-benzo[d]imidazole-7-carboximidamide]
1070 | – | CO[C@@H]1CN(C)C[C@H]1Nc1nc2nccc(/C(=N/O)Nc3ccc(F)c(Cl)c3)c2[nH]1 [Example 479, N-(3-chloro-4-fluorophenyl)-N′-hydroxy-2-(((3R,4R)-4-methoxy-1-methylpyrrolidin-3-yl)amino)-1H-imidazo[4,5-b]pyridine-7-carboximidamide]
– | 434 | CNCc1nc2c(/C(=N/O)Nc3ccc(F)c(Cl)c3)cc(F)c(F)c2[nH]1 [Example 48, N-(3-Chloro-4-fluorophenyl)-4,5-difluoro-N′-hydroxy-2-((methylamino)methyl)-1H-benzo[d]imidazole-7-carboximidamide]
